Results published in US20090298903A1, “USE OF TETRAMIC ACID DERIVATIVES FOR INSECT CONTROL” (priority 2006, published 2009).

What was measured:
Format in all cases: in vivo
[1] = test system: oriental fruit moth (Laspeyresia molesta); test: Example 28: peach trees against oriental fruit moth; details: 41 d after treatment, Pyrifroxyfen (35 WP) 123, Acetamiprid (30 SG) 168, (I-4) (150 OD) 153 g a.s./ha
Description: Approx. 10-year-old peach trees are treated, in four replications, against the oriental fruit moth (Laspeyresia molesta). The application is carried out with a knapsack sprayer which is operated with pressurized air. Here, the active substance (I-4) (150 OD) is tested against the commercial standards Pyriproxyfen (35 WP) and Acetamiprid (30 SG) at the specified application rates. The water application rate is 935 l/ha.
The test is evaluated 41 days after the treatment by scoring the destruction rate of the animals on the trees.

Carpocapsa pomonella = test: Example 29: apple trees against Carpocapsa pomonella, fruit damage; details: application rate printed as g a.s./ha: Chlorpyrifos-methyl (25 WP) 0.1, (I-4) (240 SC + 0.1% Steffes Mero) 0.012
Description: Approx. 15-year-old apple trees cv. “Golden Delicious” are treated, in four replications, against Carpocapsa pomonella. The application is carried out with an atomizer. Here, the active substance Example (I-4) (240 SC) in a tank mix together with 0.1% a.s. of the adjuvant Steffes Mero (rapeseed oil methyl ester) (733 1R) and the commercial standard Chlorpyrifos-methyl (25 WP) are tested at the specified application rates. The water application rate is 1052 l/ha. Two applications are carried out at an interval of 13 days.
The test is evaluated 32 days after treatment 2 by scoring the fruit damage with the aid of the Abbott formula.

[2] = test system: apple capsid bug (Plesiocoris rugicollis); test: Example 1B: apple trees against apple capsid bug; details: 37 d after treatment, larvae on twigs, Deltamethrin (EC 025) 3.75, (I-4) (150 OD) 30 g a.s./ha/m crown level
Description: Apple trees cv. “Holsteiner Cox” which are approximately 14 years old are treated, in 3 replications, against the apple capsid bug (Plesiocoris rugicollis). Here, the active substance Example (I-4) (150 OD) is tested at the specified application rate against the commercial standard Deltamethrin liquid (EC 025) at the specified application rate. The application is carried out with a knapsack sprayer. Here, the treatment is effected with a water application rate of 500 l/ha/m crown level.
The test is evaluated 37 days after the treatment by scoring the destruction of the larvae on the twigs with the aid of the Abbott method.

[3] = test system: Leptinotarsa decemlineata; test: Example 23: potatoes against Leptinotarsa decemlineata
Description: Plots approx. 10 m^2 in size which are planted with potatoes “Quarta” are treated, in three replications, against Leptinotarsa decemlineata. The application is carried out with a knapsack sprayer operated with pressurized air. Here, the active substance Example (I-4) (240 SC), in a tank mix together with 0.2% a.s. rapeseed oil methyl ester (500 EW) and the commercial standard Deltamethrin (100 EC), is tested at the specified application rate. The water application rate is 300 l/ha.
The test is evaluated 3, 8 and 20 days after the treatment by scoring the destruction rate of the animals (larvae) on the plants.

Ceutorhynchus napi = test: Example 26-A: oilseed rape against Ceutorhynchus napi; details: 55 d after treatment, larvae, Deltamethrin (25 EC) 5, (I-4) (+ 0.2% rapeseed oil methyl ester) 72, Thiacloprid (OD 240) 72, Lambda-cyhalothrin 5 g a.s./ha
Description: Plots approx. 25 m^2 in size which are planted with oilseed rape cv. “Artus” are treated, in four replications, against Ceutorhynchus napi. The application is carried out with a motor-operated knapsack sprayer. Here, the active substance Example (I-4), in a tank mix with 0.2% a.s. rapeseed oil methyl ester (500 EW) and the commercial standards Deltamethrin (25 EC), lambda-cyhalothrin (S100) and Thiacloprid (OD 240), is tested at the specified application rates. The water application rate is 250 l/ha.
The test is evaluated 55 days after the treatment by scoring the destruction rate of the larvae on the plants.

Thrips tabaci [4] = test: Example 6: onions against Thrips tabaci; details: population on leaves
Description: Plots 15 m^2 in size which are planted with onions are treated, in two replications, against Thrips tabaci. The application is effected with a knapsack sprayer which is operated with pressurized air. Here, the active substances Example (I-4), in a tank mix together with 0.2% a.s. rapeseed oil methyl ester (500 EW) and the commercial standard dimethoate and (380 EC), are tested at the specified application rates in a tank mix with 0.9% a.s. E-actipron (900 EC). The water application rate is 300 l/ha.
The test was evaluated 43 and 62 days after the treatment by scoring the destruction rate of the population on the leaves.

Rhagoletis cerasi = test: Example 21: cherry trees against Rhagoletis cerasi; details: 23 d after treatment 2, larvae on fruits, Dimethoate (400 EC) 200, (I-4) (150 OD) 75 g a.s./ha/m crown level
Description: Cherry trees cv. “Van” which are approximately 26 years old are treated, in three replications, against Rhagoletis cerasi. The application is carried out with an atomizer. Here, the active substance Example (I-4) (150 OD) and the commercial standard dimethoate (400 EC) are applied at the specified application rates. Two applications are carried out at an interval of 6 days with a water application rate of 500 l/ha/m crown level.
The test is evaluated 23 days after treatment 2 by scoring the destruction rates of the animals (larvae) on the fruits with the aid of the Abbott formula.

Caliothrips phaseoli = test: Example 3: courgettes against Caliothrips phaseoli; details: 8 d after treatment, nymphs on 5 leaves, Endosulfan (350 EC) 525, (I-4) (240 SC + 0.1% rapeseed oil methyl ester) 72 g a.s./ha
Description: Plots approx. 22 m^2 in size which are planted with courgettes cv. “Italiana negra” are treated, in three replications, against Caliothrips phaseoli. The application is effected with a motor-driven knapsack sprayer. Here, the active substance Example (I-4) (240 SC), in a tank mix together with 0.1% a.s. rapeseed oil methyl ester (500 EW) and the commercial standard endosulfan (350 EC), is tested at the specified application rates. The water application rate is approx. 510 l/ha.
The test is evaluated 8 days after the treatment by scoring the destruction of the animals (nymphs) on 5 leaves.

Dasineura pyri = test: Example 19b): pear trees against Dasineura pyri; details: 9 d after treatment 2, larvae in rolled leaves, Endosulfan (350 EC) 472.5, (I-4) as 240 SC + Mero (0.1% rapeseed oil methyl ester) 120 g a.s./ha/m crown level
Description: Fully-grown pear trees cv. “Conference” of crown height approx. 3.5 m are treated, in four replications, against Dasineura pyri. Here, the active substance Example (I-4) is tested as (150 OD) and (240 SC) together with 0.1% a.s. rapeseed oil methyl ester (Mero 733 1R) in a tank mix at the specified application rate against the commercial standard Endosulfan (350 EC) at the specified application rate. The application is carried out with a spray diffuser. Here, the treatment is effected with a water application rate of 1000 l/ha/m crown level. Two applications are carried out at an interval of 7 days.
The test is evaluated 9 days after treatment 2 by scoring the destruction rate of the larvae in the rolled leaves, using the Abbott method.

Dasineura mali = test: Example 19 a): apple trees against Dasineura mali; details: 59 d after treatment; larvae, apple twigs; Pirimicarb (50 WG) 125, (I-4) (100 OD) 72 g a.s./ha/m crown level
Description: Apple trees cv. “Elan” which are approximately 16 years old are treated, in 3 replications, against the Dasineura mali. Here, the active substance Example (I-4) (100 OD) is tested at the specified application rate against the commercial standard and Pirimicarb (50 WG) at the specified application rate. The application is carried out with a spray diffuser. Here, the treatment is effected with a water application rate of 1000 l/ha/m crown level.
The test is evaluated 59 days after the treatment by scoring the destruction of the larvae on the basis of the adults present on the twigs with the aid of the Abbott method.

Thrips tabaci [5] = test: Example 11: dwarf beans against Thrips tabaci
Description: Plots approx. 26 m^2 in size which are planted with dwarf beans are treated 16 days after emergence against Thrips tabaci, in four replications. The application is carried out with a knapsack sprayer which is operated with pressurized air. Here, the active substances Example (I-2) (240 SC) (I-4) (240 SC) and Example (I-9) (240 SC), in a tank mix with 0.1% a.s. rapeseed oil methyl ester (500 EW), are tested against the commercial standard Profenofos (720 EC) at the specified application rates. The water application rate is 1000 l/ha. Two applications are carried out at an interval of 10 days.
The test is evaluated 5 and 11 days after the first treatment by scoring the destruction rate of the nymphs on the leaves.

Empoasca biguttula = test: Example 16: aubergines against Empoasca biguttula
Description: Plots 10 m^2 in size which are planted with aubergines are treated, in three replications, against Empoasca biguttula. The application is carried out with a knapsack sprayer which is operated with pressurized air. Here, the active substance Example (I-4) (150 OD) is tested against the commercial standards Imidacloprid (SL 100) and Profenofos (500 EC) at the specified application rates. Two applications are carried out at an interval of 7 days. The water application rate is 750 l/ha.
The test is evaluated 2, 6 and 13 days after the first treatment by scoring the destruction rates of the animals (nymphs) on the plants.

[6] = test system: flea beetles (Phyllotreta sp.); test: Example 24: aubergines against flea beetles; details: 7 d after the last of four treatments, larvae, Imidacloprid (100 SL) 100, (I-4) (100 OD) 70, Profenofos (500 EC) 500 g a.s./ha
Description: Plots approx. 12 m^2 in size which are planted with aubergines cv. “DLP” are treated, in three replications, against flea beetles (Phyllotreta sp.). The application is carried out with a knapsack sprayer which is operated with pressurized air. Here, the active substance Example (I-4) (100 OD) and the commercial standards Imidacloprid (100 SL) and Profenofos (500 EC) are applied at the specified application rates. Four applications are carried out at intervals of 7, 8 and 10 days, with a water application rate of 750 l/ha.
The test is evaluated 7 days after the last treatment by scoring the destruction rate of the larvae on the plants.

Pegomya spp. = test: Example 17: winter wheat against Pegomya spp.; details: 3 days after the last of two treatments (interval 7 days), larvae, Thiacloprid (240 OD) 72, (I-4) (240 SC + 0.2% rapeseed oil methyl ester) 96 g a.s./ha
Description: Plots approx. 25 m^2 in size which are planted with winter wheat cv. “Capfern” are treated, in four replications, against Pegomya spp. The application is carried out with a knapsack sprayer which is operated with pressurized air. Here, the active substance Example (I-4) (240 SC), in a tank mix with 0.2% a.s. rapeseed oil methyl ester (500 EW) and the commercial standard Thiacloprid (240 OD), is tested at the specified application rates. Two applications are carried out at an interval of 7 days. The water application rate is 350 l/ha.
The test is evaluated 3 days after the last treatment by scoring the destruction rate of the larvae on the plants.

Structure (SMILES): C/C(=N\C#N)N(C)Cc1ccc(Cl)nc1 [Acetamiprid]
- Efficacy (% Abbott) 41 d [1]: 35.8 % Abbott

Structure (SMILES): COP(=S)(OC)Oc1nc(Cl)c(Cl)cc1Cl [Chlorpyrifos-methyl]
- Efficacy (% Abbott) 32 d after treatment 2 (Carpocapsa pomonella): 66.7 % Abbott

Structure (SMILES): CC1(C)[C@H](C(=O)O[C@H](C#N)c2cccc(Oc3ccccc3)c2)[C@@H]1C=C(Br)Br [Deltamethrin]
- Efficacy (%) Abbott 37 d [2]: 78%
- Efficacy (% Abbott) 3 d ([3]; 3 d after treatment, larvae, Deltamethrin (100 EC) 75, (I-4) (240 SC + 0.2% rapeseed oil methyl ester) 72 g a.s./ha): 100 % Abbott
- Efficacy (% Abbott) 8 d ([3]; 8 d after treatment, Deltamethrin 75, (I-4) 72 g a.s./ha): 100 % Abbott
- Efficacy (% Abbott) 20 d ([3]; 20 d after treatment, Deltamethrin 75, (I-4) 72 g a.s./ha): 100 % Abbott
- Efficacy (% Abbott) 55 d (Ceutorhynchus napi): 77.1 % Abbott

Structure (SMILES): CNC(=O)CSP(=S)(OC)OC [Dimethoate, dimethoate]
- Efficacy (% Abbott) 43 d (Thrips tabaci [4]; 43 d after treatment, Dimethoate (380 EC + 0.9% E-actipron) 380, (I-4) (+ 0.2% rapeseed oil methyl ester) 96 g a.s./ha): 64.5 % Abbott
- Efficacy (% Abbott) 62 d (Thrips tabaci [4]; 62 d after treatment, Dimethoate 380, (I-4) 96 g a.s./ha): 74.8 % Abbott
- Efficacy (% Abbott) 23 d (Rhagoletis cerasi): 100 % Abbott

Structure (SMILES): O=S1OCC2C(CO1)C1(Cl)C(Cl)=C(Cl)C2(Cl)C1(Cl)Cl (stereo not shown) [Endosulfan, endosulfan]
- Efficacy (% Abbott) 8 d (Caliothrips phaseoli): 67.0 % Abbott
- Efficacy (% Abbott) 9 d (Dasineura pyri): 71.6 % Abbott

Structure (SMILES): Cc1nc(N(C)C)nc(OC(=O)N(C)C)c1C [Pirimicarb]
- Efficacy (%) Abbott 59 d (Dasineura mali): 0%

Structure (SMILES): CCCSP(=O)(OCC)Oc1ccc(Br)cc1Cl (stereo not shown) [Profenofos]
- Efficacy (% Abbott) 5 d (Thrips tabaci [5]; 5 d after first treatment, nymphs on leaves, Profenofos (720 EC) 1300, (I-9) 54, (I-2) 54, (I-4) 60 g a.s./ha, 240 SC + 0.1% rapeseed oil methyl ester): 80 % Abbott
- Efficacy (% Abbott) 11 d (Thrips tabaci [5]; 11 d after first treatment (second application at 10 days), Profenofos 1300, (I-9) 54, (I-2) 54, (I-4) 60 g a.s./ha): 75 % Abbott
- Efficacy (% Abott) 2 d (Empoasca biguttula; 2 d after first treatment, nymphs, Imidacloprid (SL 100) 30, (I-4) (150 OD) 50, Profenofos (500 EC) 500 g a.s./ha, two applications, interval 7 days): 41.3 % Abott
- Efficacy (% Abott) 6 d (Empoasca biguttula; 6 d after first treatment, Imidacloprid 30, (I-4) 50, Profenofos 500 g a.s./ha): 65.1 % Abott
- Efficacy (% Abott) 13 d (Empoasca biguttula; 13 d after first treatment, Imidacloprid 30, (I-4) 50, Profenofos 500 g a.s./ha): 53.8 % Abott
- Efficacy (% Abbott) 7 d [6]: 84 % Abbott

Structure (SMILES): CC(COc1ccc(Oc2ccccc2)cc1)Oc1ccccn1 (stereo not shown) [Pyrifroxyfen, Pyriproxyfen]
- Efficacy (% Abbott) 41 d [1]: 39.0 % Abbott

Structure (SMILES): N#C/N=C1\SCCN1Cc1ccc(Cl)nc1 [Thiacloprid]
- Efficacy (% Abbott) 10 d (Pegomya spp.): 100 % Abbott
- Efficacy (% Abbott) 55 d (Ceutorhynchus napi): 52.4 % Abbott
